These results are taken from the supplement of paper PMC10307832.

Common to all, as to assay: relative viability (nuclei count vs DMSO), 5 days (fraction); higher = more cells survive
Compound in test [1]: O=C1NC(=O)[C@@H](c2cn3c4c(cccc24)CCC3)[C@@H]1c1c[nH]c2ccccc12 [Tivantinib] + CS(=O)(=O)N1CCN(Cc2cc3nc(-c4cccc5[nH]ncc45)nc(N4CCOCC4)c3s2)CC1 [Pictilisib] (partner 1 µM)
The procedure, abridged:
(§1)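 Values are medians from duplicate plates. Each reflects relative viability, defined as the nuclei count of treated wells over that of vehicle wells. Lung cancer cell lines in 1536-well plates were pin-tool dosed one day after seeding with one drug alone or with a fixed anchor-drug dose plus five library-drug doses (not always all listed) in √10 steps, then fixed, stained and imaged at 4× after 5 days.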

Compound in test [2]: CC1(COc2ccc3c(c2)ncn3-c2ccc3cccc(N4CCC(N)CC4)c3n2)COC1 [Crenolanib] + N=C(N)NC(=N)NCCc1ccccc1 [Phenformin] (partner 250 µM)
The gist of the method: as §1

Compound in test [3]: O=C1NC(=O)[C@@H](c2cn3c4c(cccc24)CCC3)[C@@H]1c1c[nH]c2ccccc12 [Tivantinib] + CC(=O)Nc1cccc(-n2c(=O)n(C3CC3)c(=O)c3c(Nc4ccc(I)cc4F)n(C)c(=O)c(C)c32)c1 [Trametinib] (partner 0.02 µM)
The gist of the method: as §1

Compound in test [4]: O=C1NC(=O)[C@@H](c2cn3c4c(cccc24)CCC3)[C@@H]1c1c[nH]c2ccccc12 [Tivantinib] + O=C(CCCCCCC(=O)Nc1ccccc1)NO [Vorinostat] (partner 1 µM)
The gist of the method: as §1

As to EBC-1, the relative viability came out at 0.492 in test [1] (first compound 0.01 µM), 0.444 in test [1] (first compound 0.03162 µM), 0.471 in test [1] (first compound 0.1 µM) and 0.345 in test [1] (first compound 0.3162 µM).
Consider EKVX, for which the relative viability was found to be 0.223 in test [2] (first compound 0.01 µM); 0.224 in test [2] (first compound 0.03162 µM); 0.24 in test [2] (first compound 0.1 µM); 0.241 in test [2] (first compound 0.3162 µM); 0.23 in test [2] (first compound 1 µM); 0.408 in test [3] (first compound 0.01 µM). Also, the relative viability stood at 0.437 in test [3] (first compound 0.03162 µM); 0.325 in test [3] (first compound 0.1 µM); 0.146 in test [3] (first compound 0.3162 µM); 0.449 in test [1] (first compound 0.01 µM); 0.381 in test [1] (first compound 0.03162 µM); 0.417 in test [1] (first compound 0.1 µM). The relative viability in test [1] (first compound 0.3162 µM) is 0.163; in test [4] (first compound 0.01 µM) it was 0.732; in test [4] (first compound 0.03162 µM) it was 0.725; in test [4] (first compound 0.1 µM), 0.704; in test [4] (first compound 0.3162 µM), 0.383.
For the cell line EMC-BAC-2, the relative viability in test [2] (first compound 0.01 µM) worked out at 0.629; in test [2] (first compound 0.03162 µM), 0.497; in test [2] (first compound 0.1 µM), 0.589; in test [2] (first compound 0.3162 µM), 0.51; in test [2] (first compound 1 µM), 0.505; in test [3] (first compound 0.01 µM) it was 0.907. The relative viability amounted to 0.934 in test [3] (first compound 0.03162 µM); 0.879 in test [3] (first compound 0.1 µM); 0.868 in test [3] (first compound 0.3162 µM); 0.562 in test [1] (first compound 0.01 µM); 0.511 in test [1] (first compound 0.03162 µM); 0.567 in test [1] (first compound 0.1 µM). Also, the relative viability was determined as 0.527 in test [1] (first compound 0.3162 µM); 0.532 in test [4] (first compound 0.01 µM); 0.522 in test [4] (first compound 0.03162 µM); 0.496 in test [4] (first compound 0.1 µM); 0.582 in test [4] (first compound 0.3162 µM).
As to EPLC-272H, the relative viability was found to be 0.356 in test [2] (first compound 0.01 µM); 0.331 in test [2] (first compound 0.03162 µM); 0.224 in test [2] (first compound 0.1 µM); 0.375 in test [2] (first compound 0.3162 µM); 0.382 in test [2] (first compound 1 µM); 0.346 in test [3] (first compound 0.01 µM). For the same cell line, the relative viability in test [3] (first compound 0.03162 µM) amounted to 0.27; in test [3] (first compound 0.1 µM), 0.265; in test [3] (first compound 0.3162 µM), 0.227; in test [1] (first compound 0.01 µM), 0.346; in test [1] (first compound 0.03162 µM) it was 0.3; in test [1] (first compound 0.1 µM) it was 0.357. The relative viability came to 0.278 in test [1] (first compound 0.3162 µM); 0.493 in test [4] (first compound 0.01 µM); 0.599 in test [4] (first compound 0.03162 µM); 0.41 in test [4] (first compound 0.1 µM); 0.296 in test [4] (first compound 0.3162 µM).
As for IA-LM, the relative viability came out at 0.401 in test [1] (first compound 0.01 µM); 0.334 in test [1] (first compound 0.03162 µM); 0.343 in test [1] (first compound 0.1 µM); 0.218 in test [1] (first compound 0.3162 µM); 1.01 in test [4] (first compound 0.01 µM); 0.826 in test [4] (first compound 0.03162 µM). The results for the relative viability in test [4] (first compound 0.1 µM) and in test [4] (first compound 0.3162 µM) were 0.87 and 0.895, respectively.
In the case of NCI-H522, the relative viability was determined as 0.706 in test [2] (first compound 0.01 µM); 0.641 in test [2] (first compound 0.03162 µM); 0.756 in test [2] (first compound 0.1 µM); 0.656 in test [2] (first compound 0.3162 µM); 0.675 in test [2] (first compound 1 µM); 0.859 in test [3] (first compound 0.01 µM). Besides, the relative viability in test [3] (first compound 0.03162 µM) came out at 0.605; in test [3] (first compound 0.1 µM), 0.815; in test [3] (first compound 0.3162 µM), 0.645; in test [4] (first compound 0.01 µM), 0.906; in test [4] (first compound 0.03162 µM), 0.754; in test [4] (first compound 0.1 µM), 0.973. For the same cell line, the relative viability in test [4] (first compound 0.3162 µM) amounted to 0.548.
On to NCI-H1299, for which the relative viability in test [1] (first compound 0.01 µM) was 0.9; in test [1] (first compound 0.03162 µM) it was 0.857; in test [1] (first compound 0.1 µM), 0.695; in test [1] (first compound 0.3162 µM) it was 0.807.
As for NCI-H1563, the relative viability was found to be 0.615 in test [2] (first compound 0.01 µM); 0.66 in test [2] (first compound 0.03162 µM); 0.699 in test [2] (first compound 0.1 µM); 0.607 in test [2] (first compound 0.3162 µM); 0.672 in test [2] (first compound 1 µM); 0.608 in test [1] (first compound 0.01 µM). The relative viability in test [1] (first compound 0.03162 µM) was found to be 0.6; in test [1] (first compound 0.1 µM) it was 0.651; in test [1] (first compound 0.3162 µM) it was 0.674.
NCI-H1648: the relative viability in test [3] (first compound 0.03162 µM) was determined as 0.505; in test [3] (first compound 0.1 µM), 0.343; in test [3] (first compound 0.3162 µM), 0.31; in test [4] (first compound 0.03162 µM), 0.445; in test [4] (first compound 0.1 µM), 0.528; in test [4] (first compound 0.3162 µM), 0.272.
In the case of NCI-H1703, the relative viability in test [1] (first compound 0.01 µM) came out at 0.215; in test [1] (first compound 0.03162 µM), 0.24; in test [1] (first compound 0.1 µM), 0.236; in test [1] (first compound 0.3162 µM) it was 0.228.
On to NCI-H1792, for which the relative viability in test [2] (first compound 0.01 µM) was determined as 0.185; in test [2] (first compound 0.03162 µM) it was 0.351; in test [2] (first compound 0.1 µM) it was 0.244; in test [2] (first compound 0.3162 µM), 0.282; in test [2] (first compound 1 µM), 0.317; in test [3] (first compound 0.01 µM), 0.421. The relative viability is 0.394 in test [3] (first compound 0.1 µM); 0.37 in test [3] (first compound 0.3162 µM); 0.343 in test [1] (first compound 0.01 µM); 0.235 in test [1] (first compound 0.03162 µM); 0.288 in test [1] (first compound 0.1 µM); 0.186 in test [1] (first compound 0.3162 µM).
For NCI-H2342, the relative viability in test [2] (first compound 0.01 µM) turned out to be 0.724; in test [2] (first compound 0.03162 µM) it was 0.525; in test [2] (first compound 0.1 µM), 0.556; in test [2] (first compound 0.3162 µM), 0.652; in test [2] (first compound 1 µM), 0.64; in test [3] (first compound 0.01 µM) it was 0.749. Besides, the relative viability in test [3] (first compound 0.03162 µM) came to 0.764; in test [3] (first compound 0.1 µM) it was 0.782; in test [3] (first compound 0.3162 µM) it was 0.665; in test [4] (first compound 0.01 µM), 0.739; in test [4] (first compound 0.03162 µM), 0.766; in test [4] (first compound 0.1 µM) it was 0.788. For the same cell line, the relative viability in test [4] (first compound 0.3162 µM) came out at 0.614.
Consider SW 900, for which the relative viability in test [2] (first compound 0.01 µM) turned out to be 0.81; in test [2] (first compound 0.03162 µM), 0.697; in test [2] (first compound 0.1 µM), 0.55; in test [2] (first compound 0.3162 µM) it was 0.416; in test [2] (first compound 1 µM), 0.585; in test [3] (first compound 0.01 µM), 0.775. Further, the relative viability came out at 0.649 in test [3] (first compound 0.03162 µM); 0.734 in test [3] (first compound 0.1 µM); 0.763 in test [3] (first compound 0.3162 µM); 0.501 in test [4] (first compound 0.01 µM); 0.438 in test [4] (first compound 0.03162 µM); 0.593 in test [4] (first compound 0.1 µM). In test [4] (first compound 0.3162 µM), the relative viability is 0.444.
